Experimental data from patent US20090143279A1 (priority 2007, published 2009).
Like-named read-outs stand apart in the source and are kept apart here.

Assays:
[1] = system: mitochondrial membrane potential; format: cell-based, mouse
[2] = system: reactive oxygen species; format: cell-based, mouse
[3] = system: OXPHOS gene expression; format: cell-based, mouse
[4] = system: nuOXPHOS transcripts; format: cell-based, mouse
[5] = system: mtOXPHOS transcripts; format: cell-based, mouse
[6] = system: cytochrome c; format: cell-based, mouse
[7] = system: C2C12 myotubes
[8] = system: cellular dehydrogenase activity
[9] = 20 μM, composite Z-score vs DMSO
[10] = Conc 20 μM, normalized score vs mock-treated (DMSO) wells
[11] = composite Z-score vs DMSO, Conc 20 μM
[12] = composite Z-score vs mock-treated (DMSO) wells, Conc 20 μM

COC1=C[C@@H](C)[C@@H]2C[C@H]3OC(=O)C[C@H]4C(C)=C(OC)C(=O)[C@H]([C@@]2(C)C1=O)[C@@]34C [quassin, reference compound]
ΔΨm [1, 9]: 0.033
ROS [2, 9]: 0.925
GE-HTS [3, 9]: 0.095
nucOX [4, 9]: 0.205
mitoOX [5, 9]: −0.168
cyt c [6, 9]: −0.233
Viability [7, 9]: −0.688
MTT [8, 9]: −0.400

NC(=O)C1(O)C[C@@H](O)C(O)[C@H](O)C1 (stereo partly shown) [quinamide]
ΔΨm (composite Z-score) [1, 10]: −0.518
ROS (composite Z-score) [2, 10]: 0.405
GE-HTS (composite Z-score) [3, 10]: −0.139
nucOX (composite Z-score) [4, 10]: −0.529
mitoOX (composite Z-score) [5, 10]: 0.735
cyt c (composite Z-score) [6, 10]: 0.359
Viability (composite Z-score) [7, 10]: −0.397
MTT (composite Z-score) [8, 10]: −1.034

CCOC(=O)[C@H](CCc1ccccc1)N[C@@H](C)C(=O)N1Cc2ccccc2C[C@H]1C(=O)O [quinapril]
ΔΨm [1, 9]: −0.276
ROS [2, 9]: 1.175
GE-HTS [3, 9]: −0.132
nucOX [4, 9]: −0.127
mitoOX [5, 9]: −0.130
cyt c [6, 9]: 0.237
Viability [7, 9]: 0.034
MTT [8, 9]: −1.111

C=C[C@H]1C[N@@]2CC[C@H]1C[C@@H]2[C@@H](O)c1ccnc2ccc(OC)cc12 [quinidine]
ΔΨm [1, 11]: 1.187
ROS [2, 11]: 1.326
GE-HTS [3, 11]: 0.849
nucOX [4, 11]: 0.956
mitoOX [5, 11]: 0.501
cyt c [6, 11]: 1.286
Viability [7, 11]: 0.916
MTT [8, 11]: −0.233

C=C[C@H]1CN2CC[C@H]1C[C@H]2[C@H](OC(=O)OCC)c1ccnc2ccc(OC)cc12 [quinine ethyl carbonate]
ΔΨm [1, 9]: −0.661
ROS [2, 9]: 0.401
GE-HTS [3, 9]: −1.190
nucOX [4, 9]: −1.003
mitoOX [5, 9]: −1.297
cyt c [6, 9]: 0.822
Viability [7, 9]: −0.167
MTT [8, 9]: −0.071

O=C(O)c1cccnc1C(=O)O [quinolinic acid]
ΔΨm [1, 9]: −1.023
ROS [2, 9]: 0.849
GE-HTS [3, 9]: −0.586
nucOX [4, 9]: −0.575
mitoOX [5, 9]: −0.519
cyt c [6, 9]: −0.222
Viability [7, 9]: −0.516
MTT [8, 9]: −1.118

COc1ccc(/C=C/c2cc(O)cc(O)c2)cc1 [resveratrol 4′-methyl ether]
ΔΨm [1, 12]: −0.389
ROS [2, 12]: 0.225
GE-HTS [3, 12]: −0.005
nucOX [4, 12]: −0.063
mitoOX [5, 12]: 0.065
cyt c [6, 12]: 0.142
Viability [7, 12]: −0.225
MTT [8, 12]: −1.056

COc1ccc(-c2coc3c(O)c(OC)ccc3c2=O)cc1 [retusin 7-methyl ether]
ΔΨm [1, 11]: −0.603
ROS [2, 11]: 0.088
GE-HTS [3, 11]: 0.788
nucOX [4, 11]: 0.765
mitoOX [5, 11]: 0.631
cyt c [6, 11]: 0.412
Viability [7, 11]: −0.245
MTT [8, 11]: −0.627

COc1ccc(-c2coc3c(OC)c(OC)ccc3c2=O)cc1 [retusin dimethyl ether]
ΔΨm (composite Z-score) [1]: 0.378
ROS (composite Z-score) [2]: 0.069
GE-HTS (composite Z-score) [3]: −0.135
nucOX (composite Z-score) [4]: −0.033
mitoOX (composite Z-score) [5]: −0.331
cyt c (composite Z-score) [6]: −0.199
Viability (composite Z-score) [7]: 0.317
MTT (composite Z-score) [8]: −1.263

COC1=C(O)C(=O)c2c(cc3oc(C(C)=O)c(O)c3c2O)C1=O [rhodocladonic acid]
ΔΨm [1, 11]: 0.068
ROS [2, 11]: 0.733
GE-HTS [3, 11]: 0.294
nucOX [4, 11]: 0.393
mitoOX [5, 11]: 0.072
cyt c [6, 11]: 1.150
Viability [7, 11]: −0.416
MTT [8, 11]: −1.057

Cc1c(O)c(C(=O)CC(C)C)c2oc3c(C(=O)CC(C)C)c(O)c(C)c(O)c3c2c1O [rhodomyrtoxin]
ΔΨm (composite Z-score) [1, 10]: 2.834
ROS (composite Z-score) [2, 10]: 0.397
GE-HTS (composite Z-score) [3, 10]: 0.357
nucOX (composite Z-score) [4, 10]: 0.412
mitoOX (composite Z-score) [5, 10]: 0.206
cyt c (composite Z-score) [6, 10]: −1.200
Viability (composite Z-score) [7, 10]: −0.636
MTT (composite Z-score) [8, 10]: 2.413
